Measured values: paper PMC8910920 (International Journal of Molecular Sciences, 2022)

Biological target: T1, hCGRPR (Homo sapiens, UniProt O60894+Q16602)
T1 construct: host or cells: CHO
Experiment: Radioligand binding assay, CHO cells, hCGRPR
Conditions: radioligand [125]hGCRPα
Protocol: To define whether β–lactam derivative RGM8-51 could bind to CGRPR, CB2 and M3 receptors, in vitro binding assays were performed, using CHO cell lines transfected with these receptors. The degree of binding was determined by using specific radioligands for each receptor (Table 2, footnote).
These studies were subcontracted to Eurofins-CEREP or Eurofins-PANLABS. Briefly, agonists and antagonist assays were performed in cell cultures overexpressing the corresponding channel (CHO: TRPV1 and TRPA1; HEK293: TRPV3 and ASIC3). In vitro pharmacology, cellular channel functional assays: the compound was prepared in assay buffer to the final concentration, 10 μM. […] The agonist assay was conducted on fluorimeter instruments where the test compound, vehicle controls, and reference agonist were added to the assay plate after a fluorescence baseline was established. […] For the antagonist assay, the compound was pre-incubated for five minutes at room temperature, and then challenged with the EC80 concentration of the reference agonist after establishment of a fluorescence baseline. […] Binding assay results are expressed as a percent of control specific binding. […] Aqueous solubility (μM) was determined by comparing the peak area of the principal peak in a calibration standard (200 μM) containing organic solvent (methanol/water, 60/40, v/v) with the peak area of the corresponding peak in a buffer sample. […]

T1 sequence (Q16602 23-461): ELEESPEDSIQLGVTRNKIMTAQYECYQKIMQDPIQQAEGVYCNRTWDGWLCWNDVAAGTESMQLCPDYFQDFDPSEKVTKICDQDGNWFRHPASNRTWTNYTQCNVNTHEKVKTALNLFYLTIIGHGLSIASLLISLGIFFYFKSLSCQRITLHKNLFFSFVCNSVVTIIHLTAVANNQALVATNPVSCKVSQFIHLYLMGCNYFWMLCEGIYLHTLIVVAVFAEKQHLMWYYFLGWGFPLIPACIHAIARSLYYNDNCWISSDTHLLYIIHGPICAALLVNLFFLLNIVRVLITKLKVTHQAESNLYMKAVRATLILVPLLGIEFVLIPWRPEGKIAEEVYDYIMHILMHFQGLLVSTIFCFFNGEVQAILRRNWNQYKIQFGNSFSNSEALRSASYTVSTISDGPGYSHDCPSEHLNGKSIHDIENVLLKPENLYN
T1 sequence (O60894 27-148 partner): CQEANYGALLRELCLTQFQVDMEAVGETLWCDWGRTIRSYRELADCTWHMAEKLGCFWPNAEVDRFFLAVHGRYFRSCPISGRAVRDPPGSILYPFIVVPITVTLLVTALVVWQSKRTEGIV

C[C@@H]1C(=O)N(C[C@H](Cc2ccccc2)N(Cc2ccccc2)Cc2ccccc2)[C@]1(Cc1ccccc1)C(=O)OC(C)(C)C [RGM8-51, 4(S)-Benzyl-3S-methyl-4-(tert-butoxy)carbonyl-1-[(2′S-dibenzylamino-3′-phenyl)prop-1′-yl]-2-oxoazetidine]
Binding hCGRPR (%), inhibition of specific binding (10 μM): did not show significant affinity | inhibition at 10 µM (read-out: Binding hCGRPR (%), inhibition of specific binding): -1 ± 4.3%
